# Residue numbers refer to the chain shown, from its start. pIC50, pKi: −log10 of the molar value. Calls of active or inactive are those of the source. The calls are words filed in the database; no cut-off is given here.
# What was measured:
# Canis familiaris = assay: Increase in rapid eye movement sleep in dog at 3 mg/kg, po after 3.5 hrs; assay type: functional, organism-based; set-up: dose 3 mg/kg; settings: Canis lupus familiaris
# Rattus norvegicus [1] = assay: Increase in slow wave sleep in Sprague-Dawley rat at 15 mg/kg, po after 2 hrs; assay type: functional, organism-based; set-up: dose 15 mg/kg
# Mus musculus [2] = assay: Reduction in active wake sleep in mouse at 100 mg/kg, po after 2 hrs; assay type: functional, organism-based; set-up: dose 100 mg/kg
# [3] = Clearance in dog at 1 mg/kg, iv; assay type: ADME, organism-based, Canis lupus familiaris; set-up: dose 1 mg/kg, route intravenous; settings: in vivo
# [4] = Tmax in mouse at 100 mg/kg, po; assay type: ADME, organism-based; set-up: dose 100 mg/kg, route oral; settings: in vivo
# Canis lupus familiaris = species on record: Canis lupus familiaris; assay: Antagonist activity at dog OX1R by FLIPR assay
# Cytochrome P450 2C9 = Cytochrome P450 2C9 (Homo sapiens, UniProt P11712); assay: Reversible inhibition of CYP2C9 (unknown origin); assay type: ADME
# Sequence of Cytochrome P450 2C9 (P11712 whole entry): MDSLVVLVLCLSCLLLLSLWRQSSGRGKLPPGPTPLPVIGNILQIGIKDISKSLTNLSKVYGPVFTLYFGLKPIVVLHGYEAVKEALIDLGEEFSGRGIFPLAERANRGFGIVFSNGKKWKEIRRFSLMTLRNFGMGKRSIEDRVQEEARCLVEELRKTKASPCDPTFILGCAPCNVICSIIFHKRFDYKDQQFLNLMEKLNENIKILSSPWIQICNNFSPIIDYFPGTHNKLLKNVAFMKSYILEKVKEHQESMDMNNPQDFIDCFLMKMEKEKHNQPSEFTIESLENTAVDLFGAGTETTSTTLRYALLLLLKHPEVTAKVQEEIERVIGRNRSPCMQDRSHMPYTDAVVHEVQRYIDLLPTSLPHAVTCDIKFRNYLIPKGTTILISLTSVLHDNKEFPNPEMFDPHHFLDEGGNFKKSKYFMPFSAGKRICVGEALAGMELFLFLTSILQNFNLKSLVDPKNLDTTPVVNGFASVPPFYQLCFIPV
# Mus musculus [5] = assay: Increase in rapid eye movement sleep in mouse at 100 mg/kg, po after 2 hrs; assay type: functional, organism-based; set-up: dose 100 mg/kg
# [6] = Cmax in rat at dog at 3 mg/kg, po; assay type: ADME, organism-based, Canis lupus familiaris; set-up: dose 3 mg/kg, route oral; settings: in vivo
# [7] = Drug uptake in mouse CSF at 100 mg/kg, po after 2 hrs; assay type: ADME, organism-based; set-up: dose 100 mg/kg, route oral; settings: cerebrospinal fluid, read-out: Drug uptake
# Cytochrome P450 2D6 = Cytochrome P450 2D6 (Homo sapiens, UniProt P10635); assay: Reversible inhibition of CYP2D6 (unknown origin); assay type: ADME
# Sequence of Cytochrome P450 2D6 (P10635 whole entry): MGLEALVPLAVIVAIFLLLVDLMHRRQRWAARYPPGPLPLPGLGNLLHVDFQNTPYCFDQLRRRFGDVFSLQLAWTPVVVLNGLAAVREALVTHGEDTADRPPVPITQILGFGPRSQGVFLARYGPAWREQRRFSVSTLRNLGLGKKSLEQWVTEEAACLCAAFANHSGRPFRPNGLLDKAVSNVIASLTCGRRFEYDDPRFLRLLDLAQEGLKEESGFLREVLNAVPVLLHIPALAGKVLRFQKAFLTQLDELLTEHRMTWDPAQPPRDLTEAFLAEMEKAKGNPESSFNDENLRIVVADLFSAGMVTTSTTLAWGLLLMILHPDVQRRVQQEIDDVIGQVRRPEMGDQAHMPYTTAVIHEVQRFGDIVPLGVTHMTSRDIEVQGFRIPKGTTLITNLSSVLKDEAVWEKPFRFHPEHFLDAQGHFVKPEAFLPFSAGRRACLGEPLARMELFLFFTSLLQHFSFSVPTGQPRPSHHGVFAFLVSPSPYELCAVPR
# Rattus norvegicus [8] = assay: Reduction in active wake sleep in Sprague-Dawley rat at 15 mg/kg, po after 2 hrs; assay type: functional, organism-based; set-up: dose 15 mg/kg
# [9] = Lipophilicity, log D of the compound; assay type: physicochemical; settings: octanol/water
# [10] = target: T1, Orexin receptor type 2 (Canis lupus familiaris) (UniProt Q9TUP7); assay: Antagonist activity at dog OX2R by FLIPR assay
# T1 sequence (whole entry): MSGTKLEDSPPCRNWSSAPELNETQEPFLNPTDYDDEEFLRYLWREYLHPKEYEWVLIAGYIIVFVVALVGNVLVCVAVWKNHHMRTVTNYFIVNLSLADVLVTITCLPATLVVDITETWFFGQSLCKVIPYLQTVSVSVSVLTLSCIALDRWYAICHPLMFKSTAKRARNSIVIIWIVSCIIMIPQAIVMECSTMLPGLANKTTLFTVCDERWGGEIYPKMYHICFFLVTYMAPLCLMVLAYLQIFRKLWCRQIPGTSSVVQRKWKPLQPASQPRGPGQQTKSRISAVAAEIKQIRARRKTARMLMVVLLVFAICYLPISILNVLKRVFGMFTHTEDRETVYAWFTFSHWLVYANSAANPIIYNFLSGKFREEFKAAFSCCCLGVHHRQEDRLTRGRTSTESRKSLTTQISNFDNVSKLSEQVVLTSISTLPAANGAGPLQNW
# [11] = Cmax in Sprague-Dawley rat at 15 mg/kg, po; assay type: ADME, organism-based; set-up: dose 15 mg/kg, route oral; settings: in vivo
# [12] = Drug uptake in dog CSF at 3 mg/kg, po; assay type: ADME, organism-based, Canis lupus familiaris, Cerebrospinal fluid; set-up: dose 3 mg/kg, route oral; settings: in vivo, read-out: Drug uptake
# Mus musculus [13] = assay: Increase in slow wave sleep in OX2R-knockout mouse at 100 mg/kg, po after 2 hrs; assay type: functional, organism-based; set-up: dose 100 mg/kg
# [14] = Cmax in mouse at 100 mg/kg, po; assay type: ADME, organism-based; set-up: dose 100 mg/kg, route oral; settings: in vivo
# [15] = Cmax in dog at 3 mg/kg, po; assay type: ADME, organism-based, Canis lupus familiaris; set-up: dose 3 mg/kg, route oral; settings: in vivo
# [16] = Tmax in rat at dog at 3 mg/kg, po; assay type: ADME, organism-based, Canis lupus familiaris; set-up: dose 3 mg/kg, route oral; settings: in vivo
# Rattus norvegicus [17] = species on record: Rattus norvegicus; assay: Ex vivo receptor occupancy at human OX2R expressed in transgenic rat at plasma concentration of 1.06 uM; assay type: functional
# [18] = Tmax in rat at 5 mg/kg, po; assay type: ADME, organism-based; set-up: dose 5 mg/kg, route oral; settings: in vivo
# [19] = target: T2, Orexin/Hypocretin receptor type 1 (Mus musculus) (UniProt P58307); assay: Antagonist activity at mouse OX1R by FLIPR assay
# T2 sequence (whole entry): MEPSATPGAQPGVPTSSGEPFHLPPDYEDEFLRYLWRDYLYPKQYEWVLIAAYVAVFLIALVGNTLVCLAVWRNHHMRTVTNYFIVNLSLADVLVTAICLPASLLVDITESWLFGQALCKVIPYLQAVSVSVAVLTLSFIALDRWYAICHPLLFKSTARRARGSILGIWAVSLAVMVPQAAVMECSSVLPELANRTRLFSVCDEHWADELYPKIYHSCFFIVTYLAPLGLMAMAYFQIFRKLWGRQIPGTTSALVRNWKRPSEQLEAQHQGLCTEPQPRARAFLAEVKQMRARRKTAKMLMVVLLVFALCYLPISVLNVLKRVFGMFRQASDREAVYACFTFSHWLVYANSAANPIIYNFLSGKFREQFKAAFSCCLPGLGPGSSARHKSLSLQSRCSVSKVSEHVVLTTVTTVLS
# [20] = Oral bioavailability in […] dog at 3 mg/kg; assay type: ADME, organism-based, Canis lupus familiaris; settings: in vivo
# [21] = Clearance in dog with cassette dosing; assay type: ADME, organism-based, Canis lupus familiaris; settings: in vivo
# Rattus norvegicus [22] = species on record: Rattus norvegicus; assay: Ex vivo receptor occupancy at human OX2R expressed in transgenic rat at CSF concentration of 40 nM; assay type: functional
# Orexin receptor type 2 [23] = target: T3, Orexin receptor type 2 (Homo sapiens, UniProt O43614); assay: Displacement of (S)-N-(2-(1H-pyrrol-1-yl)phenyl)-1-(2-([3H]-1-methyl-1H-benzo[d]imidazol-2-ylthio)acetyl)pyrrolidine-2-carboxamide from human OX2R expressed in CHO cells after 3 hrs by topcount analysis; assay type: cell-based
# T3 sequence (O43614 whole entry): T1 sequence (whole entry) with P19S, V70I, M196V, L197F, A272V, Q281P, I286M, V308I, T334A, V417I
# Orexin receptor type 2 [24] = target: T3, Orexin receptor type 2; assay: Antagonist activity at human OX2R expressed in CHO cells assessed as inhibition of Ala-6,12-orexinA-induced effect after 5 mins by FLIPR assay; assay type: cell-based
smiles,measurement,setting,value
COc1ccc(CNC(=O)c2cc(-c3cncc(C)c3)ncc2-c2nccs2)nc1OC,Activity,Canis familiaris,Active
same,Activity,Rattus norvegicus [1],Active
same,Activity,Mus musculus [2],Active
same,clearance,[3],7.2 mL/min/kg
same,Tmax,[4],120 min
same,INH,Canis lupus familiaris,10 µM
same,pIC50,Cytochrome P450 2C9,< 4.30
same,Activity,Mus musculus [5],Active
same,Cmax,[6],2.1 µM
same,concentration at 2 h,[7],4.9 µM
same,pIC50,Cytochrome P450 2D6,< 4.30
same,Activity,Rattus norvegicus [8],Active
same,logD,[9],1.9
same,INH,[10],16 nM
same,Cmax,[11],5.3 µM
same,concentration,[12],0.46 µM
same,Activity,Mus musculus [13],inactive
same,Cmax,[14],55.3 µM
same,Cmax,[15],2.7 µM
same,Tmax,[16],42 min
same,Occ,Rattus norvegicus [17],90%
same,Tmax,[18],18 min
same,INH,[19],27.2 µM
same,bioavailability,[20],49%
same,clearance,[21],12 mL/min/kg
same,Occ,Rattus norvegicus [22],90%
same,pKi,Orexin receptor type 2 [23],8.96
same,pIC50,Orexin receptor type 2 [24],7.80
